Reference: patent US10105380B2, “Glycoclusters and their pharmaceutical use as antibacterials” (priority 2013, dated 2018)
≈ marks a conversion by molar mass, not a printed value.

Target: T1, PA-IL (Pseudomonas aeruginosa, UniProt Q05097)
Test: Enzyme Linked Lectin Assay (ELLA), PAA-galactose coated plates
Format: binding
Conditions: IC50 of Gal-ArNO2 over IC50 of the molecule
Experimental: (§1) The binding of PA-IL to galactoclusters was probed as the ability of the clusters to inhibit the binding of PA-IL to rabbit erythrocytes (Hemagglutination inhibition assay, HIA) or to surface bound galactosyl modified polyacrylamide either by Surface Plasmon Resonance (SPR), Enzyme Linked Assay (ELLA) Inhibition was measured with competitive assays. In HIA experiments, the minimal inhibitory concentration (MIC) is the minimal concentration of galactocluster that inhibit the hemagglutination of rabbit erythrocytes in presence of the lectin. The lower the MIC the highest is the binding of the galactocluster to the lectin. SPR and ELLA were used to determine the IC50 value. […] The lower the IC50 value as determined by SPR (^SPRIC50) and ELLA (^ELLAIC50), the higher is the binding of PA-IL to the galactocluster.
96-Well microtiter plates (NuncMaxisorb) were coated with α-PAA-Gal(PAA=polyacrylamide) for PA-IL (Lectinity Holding, Inc.): 100 μL of 5 μg·mL^−1 in carbonate buffer, pH 9.6 for 1 h at 37° C., then blocking at 37° C. for 1 h with 100 μL per well of 3% (w/v) bovine serum albumin (BSA) in phosphate buffer solution (PBS). Lectin solutions (75 μL) were diluted (1:2) starting from 30 μg·mL^−1. After 1 h incubation at 37° C. and three washes with T-PBS (PBS that contained 0.05% Tween 20), horseradish peroxidase (HRP)-streptavidin conjugate (100 μL; dilution 2:8000; Boehringer-Mannheim) was added and left for 1 h at 37° C. Coloration was developed by using 100 μL per well of 0.05% phosphate/citrate buffer that contained o-phenylenediaminedihydrochloride ([…]) and urea hydrogen peroxide (0.4 mg·mL^−1) (OPD kit, Sigma-Aldrich) for 15 min and stopped with sulfuric acid (50 μL, 30%). Absorbance was then read at 490 nm using a microtiter plate reader (BioRad 680). The concentration of biotinylatedlectins was determined by plotting the relative absorbance versus lectin concentration. The concentration that led to the highest response in the linear area was selected as the standard lectin concentration for the subsequent inhibition experiments.
Microtiter plates were modified with PAA-galactose. Slides were incubated with increasing concentration of galactosylated ligands. […] The lowest the IC50 as determined the strongest is the binding of the studied molecule to PA-IL. ELLA: This IC50 will be referred here after ^ELLAIC50. SPR: This IC50 will be referred here after ^SPRIC50.

T1 sequence (Q05097 2-122): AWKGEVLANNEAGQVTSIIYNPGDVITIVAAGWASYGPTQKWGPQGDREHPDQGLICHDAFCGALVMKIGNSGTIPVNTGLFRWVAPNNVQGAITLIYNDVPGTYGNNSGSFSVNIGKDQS

Row | Compound | ELLA βAr
1 | Man(POProTzEG3-O-Gal)4 | 1.2

Target: T1, PA-IL
Test: DDI glycoarray, direct fluorescence scanning with Alexa647-PA-IL
Format: binding
Conditions: result in words

Row | Compound | binding to PA-IL on microarray
2 | Man(HexTzM-Gal)4 [compound 18] | high binding

Target: T1, PA-IL
Test: not given
Format: binding
Conditions: Table 6, relative potency vs monovalent ligand 31
Experimental: IC50 Determination with “on Chip” Biological Recognition
Lectin PA-IL (0.12 μM final concentration), BSA (2% final concentration) and CaCl2 (1 μg/mL final concentration) was diluted in PBS1× (pH=7.4). In each micro tube was added the inhibitor lactose at the desired final concentration (0; 1.10^−5; 1.10^−4; 5.10^−4; 1.10^−3; 5.10^−3; 1.10^−2; 5.10^−2; 0.1; 1; 5; 10; 50; 10^2; 5.10^2; 10^3; 5.10^3; 10^4; 10^5; 3.10^5).
2 μL of each solution were deposited in the corresponding microwells and the slide was incubated at 37° C. in a water vapor saturated chamber for 3 h. The washing steps are: PBS-Tween0.2% 5 min at 4° C., then briefly in deionized water and dried by centrifugation.
Slide was scanned at 532 nm then at 635 nm with the Microarray scanner, GenePix 4100A software package (Axon Instruments; λex 532/635 nm and λem 575/670 nm). The fluorescence signal of each conjugate was determined as the average of the mean fluorescence signal of sixty-four spots.
IC50 values were determined using “BioDataFit 1.02 program”. The model chosen was “Sigmoidal”: Y=a+(b−a)/[1+10^(x−c)]
with a=FImin, b=FImax, x=[…] and c=log(IC50). FImin/max is the minimum/maximum Alexa-647 fluorescence signal observed for a galactomimetic.
So the IC50 value was called IC50Lac.

Row | Compound | β
3 | Man(POProTzEG3-O-Gal)4 [C3] | 1.8

Same assay, conditions: lactose concentration required to displace 50% of PA-IL from the glycocluster; higher = better binding; read-out: IC50Lac

Row | Compound | IC50 [µM]
4 | Man[POTHME(MTzAcNPhe-O-Gal)2]4 [compound 35] | 1810
5 | Man(POProTzAcNPhe-O-Gal)8 [compound 34] | 6800
6 | Man(POProTzEG3-O-Gal)4 [C3] | 29
7 | Man(POEG2MTzEG3-Gal)4 [compound 36] | 24
8 | Man(HexTzM-Gal)4 [compound 18] | 107

Same assay, conditions: ratio of IC50Lac to mono EG3-O-galactose (entry 1)

Row | Compound | Potency vs EG3-O-Gal
9 | Man[POTHME(MTzAcNPhe-O-Gal)2]4 [compound 35] | 361
10 | Man(POProTzAcNPhe-O-Gal)8 [compound 34] | 1361
11 | Man(POProTzEG3-O-Gal)4 [C3] | 5.8
12 | Man(POEG2MTzEG3-Gal)4 [compound 36] | 4.8
13 | Man(HexTzM-Gal)4 [compound 18] | 21

Same assay, conditions: ratio of IC50Lac to mono-aromatic galactose 31 (entry 2)

Row | Compound | Potency vs AcNPhe-O-Gal
14 | Man[POTHME(MTzAcNPhe-O-Gal)2]4 [compound 35] | 113
15 | Man(POProTzAcNPhe-O-Gal)8 [compound 34] | 425
16 | Man(POProTzEG3-O-Gal)4 [C3] | 1.8
17 | Man(POEG2MTzEG3-Gal)4 [compound 36] | 1.5
18 | Man(HexTzM-Gal)4 [compound 18] | 6.7

Target: T1, PA-IL
Test: not given
Format: binding
Conditions: potency in respect with GalOMe (ITC Kd)

Row | Compound | βMe
19 | CO[C@@H]1O[C@H](CO)[C@H](O)[C@H](O)[C@H]1O [Gal-OMe, 1-O-Methyl-β-D-galactoside] | 1

Target: T1, PA-IL
Test: Surface Plasmon Resonance (SPR) inhibition
Format: binding
Conditions: IC50 of Gal-ArNO2 over IC50 of the molecule
Experimental: as §1
SPR inhibition experiments were performed using a Biacore 3000 instrument at 25° C. Measurements were carried out on two channels with two immobilized sugars: α-L-fucose (channel 1) and α-D-galactose (channel 2). Immobilization of sugars was performed at 25° C. using running buffer (HBS) at […]. Immobilization on each channel (CM5 Chip) was performed independently as follows. First, the channel was activated by injecting a fresh mixture of EDC/NHS (35 μL, 420 s). Then a solution of streptavidin ([…] in 0.1 mM AcONa pH 5 buffer) was injected (50 μL, 600 s). The remaining reactive species were quenched by injecting ethanolamine (1M, 35 μL, 420 s) into the solution. Finally, a solution of the desired biotinylated-polyacrylamide-sugar (lectinity, […]) was coated onto the surface (50 μL, 600 s) through streptavidin-biotin interaction. […] Inhibition studies consisted of the injection (150 μL, 10 μL·min^−1, dissociation 120 s) of incubated (>1 h, RT) mixtures of PAIL ([…]) and various concentrations of inhibitor (twofold cascade dilutions). […] The CM5 chip was fully regenerated by successive injections of d-galactose (2×30 μL, 100 mm in running buffer). Binding was measured as RU over time after blank subtraction, and data were then evaluated using the BIAevaluation Software version 4.1. For IC50 evaluation, the response (Req-fitted) was considered to be the amount of lectin bound to the carbohydrate-coated surface at equilibrium in the presence of a defined concentration of inhibitor. Inhibition curves were obtained by plotting the percentage of inhibition against the inhibitor concentration (on a logarithmic scale) by using Origin 7.0 software (OriginLab Corp.), and IC50 values were extracted from sigmoidal fit of the inhibition curve.
Microtiter plates were modified with PAA-galactose. […] The lowest the IC50 as determined the strongest is the binding of the studied molecule to PA-IL. […]

Row | Compound | SPR βAr
20 | Man(POProTzEG3-O-Gal)4 | 1.7

Target: T1, PA-IL
Test: Hemagglutination inhibition assay (HIA), rabbit erythrocytes
Format: cell-based
Conditions: minimal inhibitory concentration of hemagglutination; PA-IL 3 μM
Experimental: as §1
Hemagglutination inhibition assays (HIA) were performed in U-shaped 96-well microtitre plates. Rabbit erythrocytes were purchased from Biomérieux and used without further washing. Erythrocytes were diluted to a 8% solution in NaCl (100 mM). PA-IL solutions of 3 μM were prepared in TRIS-HCl 20 mM (TRIS=tris(hydroxymethyl)aminomethane), NaCl 100 mM, and CaCl2 100 mM. The hemagglutination unit (HU) was first obtained by addition of the 4% erythrocyte solution (50 μL) to aliquots (50 μL) of sequential (twice) lectin dilutions. The mixture was incubated at 25° C. for 30 min. The HU was measured as the minimum lectin concentration required to observe hemagglutination. For the following lectin-inhibition assays, lectin concentrations of 4 HU were used. […] Subsequent inhibition assays were then carried out by the addition of lectin solution (25 μL, at the required concentration) to sequential dilutions (50 μL) of glycoclusters, monomer molecules, and controls. These solutions were incubated at 37° C. for 30 min, then 8% erythrocyte solution (25 μL) was added, followed by an additional incubation at 37° C. for 1 h. The minimum inhibitory concentration for each molecule was determined for each duplicate.

Row | Compound | MIC [mM]
21 | CO[C@@H]1O[C@H](CO)[C@H](O)[C@H](O)[C@H]1O [Gal-OMe, 1-O-Methyl-β-D-galactoside] | 16 (≈ 3110 µg/mL)

Same assay, conditions: ratio of MIC of Gal-OArNO2 over MIC of the molecule

Row | Compound | βAr
22 | CO[C@@H]1O[C@H](CO)[C@H](O)[C@H](O)[C@H]1O [Gal-OMe, 1-O-Methyl-β-D-galactoside] | 0.13

Same assay, conditions: ratio of MIC of Gal-OMe over MIC of the molecule

Row | Compound | βMe
23 | CO[C@@H]1O[C@H](CO)[C@H](O)[C@H](O)[C@H]1O [Gal-OMe, 1-O-Methyl-β-D-galactoside] | 1.0
